Measurements: ChEMBL document CHEMBL1201862, “PubChem BioAssay data set” (2004)
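Test compounds were applied to cells in 96-well plates for 48 hours at 5 doses. Here, GI50 denotes the concentration required for 50% inhibition of growth.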 Active and inactive are the calls of the source. Cut-off read from the data, not from the text of the source: active = GI50 up to about 1.1 µM and inactive = higher.

Key:
Test in all cases: inhibition of tumour cell growth, NCI panel, 48 h
U-251 = system: U-251
NCI/ADR-RES = system: NCI/ADR-RES
SR = system: SR
SNB-75 = system: SNB-75
SK-MEL-5 = system: SK-MEL-5
SK-MEL-2 = system: SK-MEL-2
CCRF-CEM = system: CCRF-CEM
UACC-257 = system: UACC-257
LOX IMVI = system: LOX IMVI
SK-OV-3 = system: SK-OV-3
A549 = system: A549
UACC-62 = system: UACC-62
HOP-62 = system: HOP-62
OVCAR-3 = system: OVCAR-3
OVCAR-8 = system: OVCAR-8
MDA-MB-435 = system: MDA-MB-435
HT-29 = system: HT-29
T47D = system: T47D
SK-MEL-28 = system: SK-MEL-28

Structure (SMILES) | GI50 (U-251) | GI50 (NCI/ADR-RES) | GI50 (SR) | GI50 (SNB-75) | GI50 (SK-MEL-5) | GI50 (SK-MEL-2) | GI50 (CCRF-CEM) | GI50 (UACC-257) | GI50 (LOX IMVI) | GI50 (SK-OV-3) | GI50 (A549) | GI50 (UACC-62) | GI50 (HOP-62) | GI50 (OVCAR-3) | GI50 (OVCAR-8) | GI50 (MDA-MB-435) | GI50 (HT-29) | GI50 (T47D) | GI50 (SK-MEL-28)
[C-]#[N+]C(=C\c1ccc(O)cc1)/C(=C/c1ccc(O)cc1)[N+]#[C-] [XANTOCILLIN] | 1.57 µM (inactive) | 2.44 µM (inactive) | 1.67 µM (inactive) | 1.12 µM (inactive) | 2.04 µM (inactive) | 2.07 µM (inactive) | 0.76 µM (active) | 2.53 µM (inactive) | 1.64 µM (inactive) | 3.39 µM (inactive) | 5.94 µM (inactive) | 1.84 µM (inactive) | 3.21 µM (inactive) | 2.33 µM (inactive) | 1.28 µM (inactive) | 1.28 µM (inactive) | 10.9 µM (inactive) | 3.34 µM (inactive) | 2.61 µM (inactive)
CC(=O)Nn1cnc(C(=N)C#N)c1N | > 100 µM (inactive) | > 100 µM (inactive) | > 100 µM (inactive) | > 100 µM (inactive) | > 100 µM (inactive) | > 100 µM (inactive) | > 100 µM (inactive) | > 100 µM (inactive) | > 100 µM (inactive) | > 100 µM (inactive) | > 100 µM (inactive) | > 100 µM (inactive) | > 100 µM (inactive) | > 100 µM (inactive) | > 100 µM (inactive) | > 100 µM (inactive) | > 100 µM (inactive) | > 100 µM (inactive) | > 100 µM (inactive)
Cc1cc2c(c(/C=N/c3ccc([N+](=O)[O-])cc3)c1)OC1(C=C2)Oc2ccccc2C(=O)N1C (stereo not given) | 21.7 µM (inactive) | 18.9 µM (inactive) | 12.3 µM (inactive) | 14.6 µM (inactive) | 31.8 µM (inactive) | 24.8 µM (inactive) | 12.2 µM (inactive) | 21.2 µM (inactive) | 12.8 µM (inactive) | 22.2 µM (inactive) | 28.2 µM (inactive) | 17.2 µM (inactive) | 29.9 µM (inactive) | 29.4 µM (inactive) | 16.1 µM (inactive) | 31.2 µM (inactive) | 18.2 µM (inactive) | 7.89 µM (inactive) | 19.9 µM (inactive)
CSc1[nH]nc(N)c1C(=O)Nc1ccc(Cl)cc1 | 92.3 µM (inactive) | 35.2 µM (inactive) | 35.3 µM (inactive) | 75.5 µM (inactive) | > 100 µM (inactive) | > 100 µM (inactive) | 27 µM (inactive) | > 100 µM (inactive) | 76.9 µM (inactive) | > 100 µM (inactive) | 48.4 µM (inactive) | 90.6 µM (inactive) | – | > 100 µM (inactive) | 40.9 µM (inactive) | > 100 µM (inactive) | 41.5 µM (inactive) | 58.1 µM (inactive) | > 100 µM (inactive)
CC(C)(C)OC(=O)N(O)[C@@H]1C=C[C@H](n2cnc3c(N)ncnc32)C1 | > 100 µM (inactive) | > 100 µM (inactive) | > 100 µM (inactive) | 33.9 µM (inactive) | 70.5 µM (inactive) | > 100 µM (inactive) | > 100 µM (inactive) | > 100 µM (inactive) | > 100 µM (inactive) | > 100 µM (inactive) | > 100 µM (inactive) | > 100 µM (inactive) | 43 µM (inactive) | > 100 µM (inactive) | > 100 µM (inactive) | > 100 µM (inactive) | – | > 100 µM (inactive) | > 100 µM (inactive)
COc1cccc2c1CCc1cc3c(N)nc(N)nc3nc1-2 | 2.67 µM (inactive) | 16.7 µM (inactive) | 3.41 µM (inactive) | 5.98 µM (inactive) | 3.09 µM (inactive) | 13.3 µM (inactive) | 2.55 µM (inactive) | 5.73 µM (inactive) | 0.34 µM (active) | 17.7 µM (inactive) | 2.45 µM (inactive) | 7.23 µM (inactive) | 5.4 µM (inactive) | 7.26 µM (inactive) | 3.31 µM (inactive) | 5.3 µM (inactive) | 2.41 µM (inactive) | 7.94 µM (inactive) | 2.78 µM (inactive)
COc1ccc(C(c2cc3c(cc2O)OCO3)N2CCOCC2)cc1OC (stereo not given) | 9.64 µM (inactive) | 5.89 µM (inactive) | 1.89 µM (inactive) | 15.3 µM (inactive) | 13.5 µM (inactive) | 16.6 µM (inactive) | 0.327 µM (active) | 15.7 µM (inactive) | 4.01 µM (inactive) | 14.1 µM (inactive) | 22.4 µM (inactive) | 5.75 µM (inactive) | 15.7 µM (inactive) | 7.8 µM (inactive) | 5.02 µM (inactive) | 11.3 µM (inactive) | 12.9 µM (inactive) | 16.9 µM (inactive) | 17.5 µM (inactive)
Cn1cc(-c2cnc(-c3cn(C)c4ccccc34)cn2)c2ccccc21 | 4.06 µM (inactive) | 2.96 µM (inactive) | 3.09 µM (inactive) | 2.77 µM (inactive) | 0.288 µM (active) | 5.87 µM (inactive) | 0.448 µM (active) | 16 µM (inactive) | 5.2 µM (inactive) | 14.6 µM (inactive) | 6.21 µM (inactive) | 2.86 µM (inactive) | 6.59 µM (inactive) | 3.04 µM (inactive) | 4.89 µM (inactive) | 0.811 µM (active) | 4.78 µM (inactive) | 44.8 µM (inactive) | 6.37 µM (inactive)
CCCNC(C#N)c1ccc(OCCCCCCCCCCOc2ccc(C(C#N)NCCC)cc2)cc1 (stereo not given) | 20.9 µM (inactive) | 56.8 µM (inactive) | 25.6 µM (inactive) | 32.8 µM (inactive) | 33.3 µM (inactive) | 38.5 µM (inactive) | 15.3 µM (inactive) | 48.5 µM (inactive) | 14.8 µM (inactive) | 64 µM (inactive) | 47 µM (inactive) | 61.2 µM (inactive) | 42.8 µM (inactive) | 30.5 µM (inactive) | 30.9 µM (inactive) | 46.3 µM (inactive) | 51.1 µM (inactive) | 64 µM (inactive) | > 100 µM (inactive)
O=C(CCCN1CCc2[nH]c3cc(F)ccc3c2C1)c1ccc(F)cc1 | 16.3 µM (inactive) | 14.2 µM (inactive) | 8.49 µM (inactive) | 11 µM (inactive) | 17.1 µM (inactive) | 18 µM (inactive) | 12 µM (inactive) | 15.4 µM (inactive) | 3.95 µM (inactive) | – | 15.8 µM (inactive) | 12.7 µM (inactive) | 16.1 µM (inactive) | 14.2 µM (inactive) | 15.1 µM (inactive) | 12.9 µM (inactive) | 6.11 µM (inactive) | 18.9 µM (inactive) | 20.3 µM (inactive)
CCS(=O)(=O)CCn1cnc2c1c(=O)n(C)c(=O)n2C | > 100 µM (inactive) | > 100 µM (inactive) | 0.0318 µM (active) | > 100 µM (inactive) | > 100 µM (inactive) | > 100 µM (inactive) | > 100 µM (inactive) | > 100 µM (inactive) | > 100 µM (inactive) | – | > 100 µM (inactive) | > 100 µM (inactive) | > 100 µM (inactive) | > 100 µM (inactive) | > 100 µM (inactive) | > 100 µM (inactive) | > 100 µM (inactive) | > 100 µM (inactive) | > 100 µM (inactive)
CCOc1cc(NC(C)=O)ccc1C(=O)NN1C(=O)/C(=C/c2ccc(Cl)cc2)N=C1c1ccccc1 | 55.8 µM (inactive) | 42 µM (inactive) | 46 µM (inactive) | 40.3 µM (inactive) | 24.2 µM (inactive) | 28.3 µM (inactive) | 25 µM (inactive) | 43.9 µM (inactive) | 62.7 µM (inactive) | > 100 µM (inactive) | 37.8 µM (inactive) | – | 44.9 µM (inactive) | 33 µM (inactive) | 34 µM (inactive) | 35.6 µM (inactive) | 52.6 µM (inactive) | 13.2 µM (inactive) | > 100 µM (inactive)
CCOC(=O)C(Cc1ccc(N(CCCl)CCCl)cc1)NC(=O)C(Cc1ccccc1)NC(C)=O (stereo not given) | > 0.316 µM (active) | > 0.33 µM (active) | 0.153 µM (active) | > 1 µM (active) | 0.248 µM (active) | > 0.265 µM (active) | 0.0353 µM (active) | 0.235 µM (active) | 0.111 µM (active) | > 0.296 µM (active) | > 0.569 µM (active) | 0.136 µM (active) | 0.275 µM (active) | 0.173 µM (active) | > 0.322 µM (active) | 0.264 µM (active) | – | 0.157 µM (active) | –
COC(=O)C(C)(Cc1ccc2c(c1)nnn2C(C)=O)NC(C)=O (stereo not given) | – | > 100 µM (inactive) | > 100 µM (inactive) | > 100 µM (inactive) | > 100 µM (inactive) | > 100 µM (inactive) | > 100 µM (inactive) | > 100 µM (inactive) | > 100 µM (inactive) | > 100 µM (inactive) | > 100 µM (inactive) | > 100 µM (inactive) | – | > 100 µM (inactive) | > 100 µM (inactive) | > 100 µM (inactive) | > 100 µM (inactive) | > 100 µM (inactive) | > 100 µM (inactive)
CCOC(=O)c1ccc(C(=O)/C(C#N)=C2\CCCN2C)[nH]1 | > 100 µM (inactive) | > 100 µM (inactive) | > 100 µM (inactive) | > 100 µM (inactive) | > 100 µM (inactive) | > 100 µM (inactive) | > 100 µM (inactive) | > 100 µM (inactive) | > 100 µM (inactive) | – | > 100 µM (inactive) | > 100 µM (inactive) | > 100 µM (inactive) | > 100 µM (inactive) | > 100 µM (inactive) | > 100 µM (inactive) | > 100 µM (inactive) | > 100 µM (inactive) | > 100 µM (inactive)
